Patent US20240294541A1, “COMPOUNDS CONSTITUTING C20-MODIFIED SALINOMYCIN DERIVATIVES, A METHOD FOR OBTAINING THE SAME, A COMPOSITION CONTAINING THE SAME AND A USE OF SAID COMPOUNDS” (FILECLO SPOLKA Z OGRANICZONA ODPOWIEDZIALNOSCIA, priority 2021, published 2024)
Read-outs that look alike come from different tables or passages of the source.

What was measured:
Type in all cases: cell-based
A375 (human melanoma) = assay: In vitro cytotoxicity, SRB assay, A375; conditions: for IC50: Homo sapiens; for A375 SI: selectivity coefficient vs normal BALB/3T3 cells
[1] = tested on: MIA PaCa-2 (human pancreatic cancer); assay: cells; conditions: for IC50: Homo sapiens, MIA PaCa-2, 72 h with compound, SRB, n/a = non-active compound, read-out: MIA PaCa-2 IC50; for MIA PaCa-2 SI: selectivity coefficient vs normal BALB/3T3 cells
[2] = tested on: KG-1 (human acute myeloid leukaemia); assay: In vitro cytotoxicity, MTT assay, KG-1; conditions: for IC50: Homo sapiens, 72 h with compound, MTT, n/a = non-active compound; for KG-1 SI: selectivity coefficient vs normal BALB/3T3 cells
[3] = tested on: A2780 (human ovarian cancer); assay: In vitro cytotoxicity, SRB assay, A2780; conditions: for IC50: Homo sapiens; for A2780 SI: selectivity coefficient vs normal BALB/3T3 cells
[4] = tested on: BALB/3T3 (normal mouse fibroblasts); assay: In vitro cytotoxicity, SRB assay, normal BALB/3T3 fibroblasts; conditions: Mus musculus, BALB/3T3; normal cells; 72 h with compound, SRB; n/a = non-active compound; read-out: BALB/3T3 IC50
[5] = tested on: NCI-H23 (human lung cancer); assay: In vitro cytotoxicity, SRB assay, NCI-H23; conditions: for IC50: Homo sapiens; for NCI-H23 SI: selectivity coefficient vs normal BALB/3T3 cells
[6] = tested on: PFSK-1 (malignant primitive neuroectodermal tumour); assay: In vitro cytotoxicity, SRB assay, PFSK-1; conditions: for IC50: Homo sapiens; for PFSK-1 SI: selectivity coefficient vs normal BALB/3T3 cells
[7] = tested on: PLC/PRF/5 (human liver cancer); assay: cells; conditions: for IC50: Homo sapiens, PLC-PRF-5, 72 h with compound, SRB, n/a = non-active compound, read-out: PLC/PRF/5 IC50; for PLC/PRF/5 SI: selectivity coefficient vs normal BALB/3T3 cells
[8] = tested on: SNU-16 (human gastric cancer); assay: cells; conditions: for IC50: Homo sapiens, SNU-16, 72 h with compound, MTT, n/a = non-active compound, read-out: SNU-16 IC50; for SNU-16 SI: selectivity coefficient vs normal BALB/3T3 cells
[9] = tested on: A2780Cis (cisplatin-resistant human ovarian cancer); assay: In vitro cytotoxicity, SRB assay, A2780Cis; conditions: for IC50: Homo sapiens, A2780cis, 72 h, read-out: A2780Cis IC50 (nM)
Hs294T (human melanoma) = assay: cells; conditions: for IC50: Homo sapiens, Hs 294T, 72 h with compound, SRB, n/a = non-active compound, read-out: Hs294T IC50; for Hs294T SI: selectivity coefficient vs normal BALB/3T3 cells
[10] = A-375, 72 h with compound, SRB, n/a = non-active compound, read-out: A375 IC50
[11] = A2780, 72 h with compound, SRB, n/a = non-active compound, read-out: A2780 IC50
[12] = NCI-H23, 72 h with compound, SRB, n/a = non-active compound, read-out: NCI-H23 IC50
[13] = PFSK-1, 72 h with compound, SRB, n/a = non-active compound, read-out: PFSK-1 IC50

Compound | IC50 (A375 (human melanoma); [10]) [nM] | A375 SI (A375 (human melanoma)) | IC50 [1] [nM] | MIA PaCa-2 SI [1] | IC50 [2] [nM] | KG-1 SI [2] | IC50 [3, 11] [nM] | A2780 SI [3] | IC50 [4] [nM] | NCI-H23 SI [5] | PFSK-1 SI [6] | IC50 [7] [nM] | PLC/PRF/5 SI [7] | IC50 [8] [nM] | SNU-16 SI [8] | A2780Cis RI [9] | A2780Cis SI [9] | IC50 [9] [nM] | IC50 (Hs294T (human melanoma)) [nM] | Hs294T SI (Hs294T (human melanoma)) | other results
CCOC(=O)CNC(=S)N[C@@H]1C=C[C@]2(O[C@H]([C@@H](CC)C(=O)[C@@H](C)[C@@H](O)[C@H](C)[C@@H]3O[C@@H]([C@@H](CC)C(=O)O)CC[C@@H]3C)[C@@H](C)C[C@H]2C)O[C@@]12CC[C@@](C)([C@H]1CC[C@](O)(CC)[C@H](C)O1)O2 [FLC-00352-1] | 459 | 0.3 | 50.9 | 2.3 | 30 | 3.8 | 2.14 | 53.8 | 115 | 0.5 | 2.5 | 32.9 | 3.5 | 52.8 | 2.2 | 1.8 | 30.4 | 3.77 | 416 | 0.3 | IC50 [5, 12]: 234 nM; IC50 [6, 13]: 45.2 nM
CC[C@@H](C(=O)[C@@H](C)[C@@H](O)[C@H](C)[C@@H]1O[C@@H]([C@@H](CC)C(=O)O)CC[C@@H]1C)[C@H]1O[C@]2(C=C[C@@H](NC(=O)NC3CCCC3)[C@]3(CC[C@@](C)([C@H]4CC[C@](O)(CC)[C@H](C)O4)O3)O2)[C@H](C)C[C@@H]1C [FLC-00351-1] | 104 | 0.6 | 22 | 3.0 | 23.7 | 2.8 | 0.45 | 148.7 | 66.6 | 0.6 | 6.2 | 22.3 | 3.0 | 24.5 | 2.7 | 1.2 | 125.6 | 0.53 | 360 | 0.2 | IC50 [5, 12]: 112 nM; IC50 [6, 13]: 10.7 nM
CC[C@@H](C(=O)[C@@H](C)[C@@H](O)[C@H](C)[C@@H]1O[C@@H]([C@@H](CC)C(=O)O)CC[C@@H]1C)[C@H]1O[C@]2(C=C[C@@H](NC(=O)NCCc3ccccc3)[C@]3(CC[C@@](C)([C@H]4CC[C@](O)(CC)[C@H](C)O4)O3)O2)[C@H](C)C[C@@H]1C [FLC-00362-1] | 281 | 0.5 | 73.8 | 2.1 | 36.8 | 4.2 | 11.3 | 13.6 | 153 | 2.5 | 4.0 | 32 | 4.8 | 17 | 9.0 | 1.1 | 12.9 | 11.9 | 473 | 0.3 | IC50 [5, 12]: 62.4 nM; IC50 [6, 13]: 38.4 nM
CCNC(=O)N[C@@H]1C=C[C@]2(O[C@H]([C@@H](CC)C(=O)[C@@H](C)[C@@H](O)[C@H](C)[C@@H]3O[C@@H]([C@@H](CC)C(=O)O)CC[C@@H]3C)[C@@H](C)C[C@H]2C)O[C@@]12CC[C@@](C)([C@H]1CC[C@](O)(CC)[C@H](C)O1)O2 [FLC-00358-1] | 208 | 1.1 | 45.6 | 4.9 | 67.7 | 3.3 | 3.32 | 67.0 | 223 | 2.0 | 6.9 | 52.8 | 4.2 | 67.9 | 3.3 | 0.7 | 98.1 | 2.27 | 1640 | 0.1 | IC50 [5, 12]: 113 nM; IC50 [6, 13]: 32.3 nM
CC[C@@H](C(=O)[C@@H](C)[C@@H](O)[C@H](C)[C@@H]1O[C@@H]([C@@H](CC)C(=O)O)CC[C@@H]1C)[C@H]1O[C@]2(C=C[C@@H](NC(=O)Nc3ccccc3C(F)(F)F)[C@]3(CC[C@@](C)([C@H]4CC[C@](O)(CC)[C@H](C)O4)O3)O2)[C@H](C)C[C@@H]1C [FLC-00381-1] | 189 | 0.8 | 69.6 | 2.3 | 36.4 | 4.4 | 13.4 | 11.9 | 159 | 3.4 | 3.2 | 62.4 | 2.5 | 63.8 | 2.5 | 0.5 | 21.7 | 7.34 | 138 | 1.2 | IC50 [5, 12]: 46.3 nM; IC50 [6, 13]: 50.4 nM
CC[C@@H](C(=O)[C@@H](C)[C@@H](O)[C@H](C)[C@@H]1O[C@@H]([C@@H](CC)C(=O)O)CC[C@@H]1C)[C@H]1O[C@]2(C=C[C@@H](NC(=S)Nc3cc(Cl)cc(Cl)c3)[C@]3(CC[C@@](C)([C@H]4CC[C@](O)(CC)[C@H](C)O4)O3)O2)[C@H](C)C[C@@H]1C [FLC-00380-1] |  | 1.0 | 48.2 | 4.0 | 6.44 | 29.6 |  | 85.7 | 191 | 36.6 | 31.6 | 19.9 | 9.6 | 6.6 | 28.9 | 0.2 | 483.3 | 0.4 | 178 | 1.1 | IC50 (A375 (human melanoma); A-375, 72 h, read-out: A375 IC50 (nM)): 195 nM; IC50 ([3]; A2780, 72 h, read-out: A2780 IC50 (nM)): 2.23 nM; IC50 ([5]; NCI-H23, 72 h, read-out: NCI-H23 IC50 (nM)): 5.22 nM; IC50 ([6]; PFSK-1, 72 h, read-out: PFSK-1 IC50 (nM)): 6.05 nM
CC[C@@H](C(=O)[C@@H](C)[C@@H](O)[C@H](C)[C@@H]1O[C@@H]([C@@H](CC)C(=O)O)CC[C@@H]1C)[C@H]1O[C@]2(C=C[C@@H](NC(=O)Nc3ccc(F)cc3)[C@]3(CC[C@@](C)([C@H]4CC[C@](O)(CC)[C@H](C)O4)O3)O2)[C@H](C)C[C@@H]1C [FLC-00363-1] | 37.3 | 1.7 | 19.3 | 3.2 | 11.7 | 5.3 | 2 | 31.1 | 62.2 | 22.4 | 15.3 | 13 | 4.8 | 4.46 | 14.0 | 0.7 | 44.3 | 1.41 | 27.3 | 2.3 | IC50 [5, 12]: 2.78 nM; IC50 [6, 13]: 4.06 nM
CC[C@@H](C(=O)[C@@H](C)[C@@H](O)[C@H](C)[C@@H]1O[C@@H]([C@@H](CC)C(=O)O)CC[C@@H]1C)[C@H]1O[C@]2(C=C[C@@H](NC(=O)NCCCl)[C@]3(CC[C@@](C)([C@H]4CC[C@](O)(CC)[C@H](C)O4)O3)O2)[C@H](C)C[C@@H]1C [FLC-00338-1 Na] | 354 | 0.5 | 58.6 | 2.8 | 222 | 0.7 | 5.4 | 30.4 | 164 | 0.3 | 3.1 | 61.6 | 2.7 | 39.2 | 4.2 | 1.9 | 16.2 | 10.1 | 1870 | 0.1 | IC50 [5, 12]: 620 nM; IC50 [6, 13]: 53.1 nM
CC[C@@H](C(=O)[C@@H](C)[C@@H](O)[C@H](C)[C@@H]1O[C@@H]([C@@H](CC)C(=O)O)CC[C@@H]1C)[C@H]1O[C@]2(C=C[C@@H](NC(=O)NC3CCCCC3)[C@]3(CC[C@@](C)([C@H]4CC[C@](O)(CC)[C@H](C)O4)O3)O2)[C@H](C)C[C@@H]1C [FLC-00384-1] | 120 | 0.9 | 62.6 | 1.7 | 19.7 | 5.3 | 4.04 | 25.9 | 105 | 3.8 | 10.5 | 28.2 | 3.7 | 21.1 | 5.0 | 0.3 | 80.0 | 1.31 | 141 | 0.7 | IC50 [5, 12]: 27.7 nM; IC50 [6, 13]: 10 nM
